The text below walks through data of patent US9169260B2 (MERCK SHARP & DOHME CORP., priority 2011, dated 2015).

A word on the IC50: it is the point on the concentration scale where inhibition reaches its midpoint.

GST tagged IRAK-4, sequence (Q9NWZ3 whole entry): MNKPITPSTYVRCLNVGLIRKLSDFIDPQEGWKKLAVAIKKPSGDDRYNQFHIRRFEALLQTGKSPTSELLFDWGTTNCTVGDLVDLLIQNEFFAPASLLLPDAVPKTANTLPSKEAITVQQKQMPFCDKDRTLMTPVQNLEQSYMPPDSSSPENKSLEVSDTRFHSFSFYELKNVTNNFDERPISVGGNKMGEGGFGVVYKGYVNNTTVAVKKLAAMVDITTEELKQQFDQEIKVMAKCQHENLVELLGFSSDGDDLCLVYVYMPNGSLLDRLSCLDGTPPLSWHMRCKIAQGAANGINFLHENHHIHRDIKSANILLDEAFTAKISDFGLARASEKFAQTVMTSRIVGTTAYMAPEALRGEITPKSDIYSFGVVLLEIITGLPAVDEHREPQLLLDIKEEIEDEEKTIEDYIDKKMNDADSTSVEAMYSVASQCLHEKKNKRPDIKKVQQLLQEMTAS

One assay addresses GST tagged IRAK-4 (Homo sapiens (Human), UniProt Q9NWZ3). As to the kind of experiment: IRAK-4 Kinase Assay (IMAP fluorescence polarization). The assay is classed as biochemical. As to conditions: 100 μM ATP, 30 minutes at 25° C. The gist of the method:
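Activity was read by IMAP fluorescence polarization, where phosphopeptide binding to M(III) nanoparticles raises FP. The 30-minute, 25° C reaction used 100 μM ATP, 100 nM RP7030 substrate and 0.5 nM GST-IRAK-4 in pH 7.2 Tris buffer with MgCl2, DTT and Tween 20.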
On to `Cc1ccc(-n2nc(C3CCN(S(C)(=O)=O)CC3)cc2NC(=O)c2cnn3cc(C#N)cnc23)nc1` [Example 191, 6-cyano-N-(1-(5-methylpyridin-2-yl)-3-(1-(methylsulfonyl)piperidin-4-yl)-1H-pyrazol-5-yl)pyrazolo[1,5-a]pyrimidine-3-carboxamide], for which the IC50 was less than 0.1 µM.
The same measure, in the same setting: as for `Cc1ccc(-n2nc(C3CCN(Cc4ccn[nH]4)CC3)cc2NC(=O)c2cnn3cccnc23)cc1` [Example 230, N-{1-(4-methylphenyl)-3-[1-(1H-pyrazol-5-ylmethyl)piperidin-4-yl]-1H-pyrazol-5-yl}pyrazolo[1,5-a]pyrimidine-3-carboxamide], the figure is less than 0.1 µM; as for `Cc1ccc(-n2nc(C3CCN(C4CCC(C)C4)CC3)cc2NC(=O)c2cnn3cccnc23)nc1` (centres unmarked) [Example 272, N-{3-[1-(3-methylcyclopentyl)piperidin-4-yl]-1-(5-methylpyridin-2-yl)-1H-pyrazol-5-yl}pyrazolo[1,5-a]pyrimidine-3-carboxamide], less than 0.1 µM; as for `COc1ccc(-n2nc(C3CCN(S(=O)(=O)C(C)C)CC3)cc2NC(=O)c2cnn3cccnc23)cc1` [Example 23, N-(3-(1-(isopropylsulfonyl)piperidin-4-yl)-1-(4-methoxyphenyl)-1H-pyrazol-5-yl)pyrazolo[1,5-a]pyrimidine-3-carboxamide], less than 0.1 µM.
Same read-out and setting: next, `Cc1ccc(-n2nc(C3=CCNCC3)cc2NC(=O)c2cnn3cccnc23)cc1` [Example 138, N-(3-(1,2,3,6-tetrahydropyridin-4-yl)-1-(p-tolyl)-1H-pyrazol-5-yl)pyrazolo[1,5-a]pyrimidine-3-carboxamide]: less than 0.1 µM.
With `CNS(=O)(=O)c1ccc(-c2cc(NC(=O)c3cnn4cc(Br)cnc34)n(-c3ccc(C)cn3)n2)cc1` [Example 194, 6-bromo-N-(1-(5-methylpyridin-2-yl)-3-(4-(N-methylsulfamoyl)phenyl)-1H-pyrazol-5-yl)pyrazolo[1,5-a]pyrimidine-3-carboxamide], the concentration for half-maximal inhibition (IC50) is less than 0.1 µM.
On the same count and under the same terms, as for `Cc1ccc(-n2nc(C3CCN(CC4CCOC4)CC3)cc2NC(=O)c2cnn3cccnc23)cc1` (centres unmarked) [Example 228, N-{1-(4-methylphenyl)-3-[1-(tetrahydrofuran-3-ylmethyl)piperidin-4-yl]-1H-pyrazol-5-yl}pyrazolo[1,5-a]pyrimidine-3-carboxamide], the figure is less than 0.1 µM; as for `CNS(=O)(=O)c1ccc(-c2cc(NC(=O)c3cnn4cc(Cl)cnc34)n(-c3ccc(C)cn3)n2)cc1` [Example 196, 6-chloro-N-(1-(5-methylpyridin-2-yl)-3-(4-(N-methylsulfamoyl)phenyl)-1H-pyrazol-5-yl)pyrazolo[1,5-a]pyrimidine-3-carboxamide], less than 0.1 µM.

Still in this assay, the particulars now being: 100 μM ATP, 30 minutes at 25° C.; μM.
As to `Cc1ccc(-n2nc(C3CCC(N(C)C)CC3)cc2NC(=O)c2cnn3cccnc23)cc1` (centres unmarked) [Example 5, N-(3-(4-(dimethylamino)cyclohexyl)-1-(p-tolyl)-1,4-pyrazol-5-yl)pyrazolo[1,5-a]pyrimidine-3-carboxamide], the IC50 is less than 1 µM.
Still for that read-out and setting: as for `COc1cc(NC(=O)c2cnn3cccnc23)n(-c2ccc(C)cn2)n1` [Example 182, N-(3-methoxy-1-(5-methylpyridin-2-yl)-1H-pyrazol-5-yl)pyrazolo[1,5-a]pyrimidine-3-carboxamide], the figure is less than 1 µM; as for `CCOC(=O)N1CC(N2CCC(c3cc(NC(=O)c4cnn5cccnc45)n(-c4ccc(C)cc4)n3)CC2)C1` [Example 239, ethyl 3-(4-{1-(4-methylphenyl)-5-[(pyrazolo[1,5-a]pyrimidin-3-ylcarbonyl)amino]-1H-pyrazol-3-yl}piperidin-1-yl)azetidine-1-carboxylate], less than 1 µM; as for `Cc1ccc(-n2nc(C3CCN(C)CC3)cc2NC(=O)c2cnn3cc(Br)cnc23)cc1` [Example 111, 6-bromo-N-(3-(1-methylpiperidin-4-yl)-1-(p-tolyl)-1H-pyrazol-5-yl)pyrazolo[1,5-a]pyrimidine-3-carboxamide], less than 1 µM.
On the same count and under the same terms, next, `CS(=O)(=O)N1CCC(c2cc(NC(=O)c3cnn4cccnc34)n(-c3ccccn3)n2)CC1` [Example 173, N-(3-(1-(methylsulfonyl)piperidin-4-yl)-1-(pyridin-2-yl)-1H-pyrazol-5-yl)pyrazolo[1,5-a]pyrimidine-3-carboxamide]: less than 1 µM.
Still for that read-out and setting: as for `Cc1ccc(-n2nc(-c3cccc(NS(C)(=O)=O)c3)cc2NC(=O)c2cnn3cccnc23)cc1` [Example 346, N-[1-(4-methylphenyl)-3-{3-[(methylsulfonyl)amino]phenyl}-1H-pyrazol-5-yl]pyrazolo[1,5-a]pyrimidine-3-carboxamide], the figure is less than 1 µM.
The molecule `Cc1ccc(-n2nc(-c3cncc(F)c3)cc2NC(=O)c2cnn3cccnc23)cc1` [Example 136, N-(3-(5-fluoropyridin-3-yl)-1-(p-tolyl)-1H-pyrazol-5-yl)pyrazolo[1,5-a]pyrimidine-3-carboxamide] had a 50% inhibitory concentration (IC50) of more than 1 µM.
The same measure, in the same setting: as for `Cc1ccc(-n2nc(C3CCNC(=O)CC3)cc2NC(=O)c2cnn3cccnc23)cc1` (centres unmarked) [Example 4, N-(3-(7-oxoazepan-4-yl)-1-(p-tolyl)-1H-pyrazol-5-yl)pyrazolo[1,5-a]pyrimidine-3-carboxamide], the figure is less than 1 µM.
With `Cc1cnc(-n2nc(C3CCN(S(=O)(=O)C4CC4)CC3)cc2NC(=O)c2cnn3cccnc23)nc1` [Example 171, N-(3-(1-(cyclopropylsulfonyl)piperidin-4-yl)-1-(5-methylpyrimidin-2-yl)-1H-pyrazol-5-yl)pyrazolo[1,5-a]pyrimidine-3-carboxamide], the IC50 was less than 1 µM.
Still for that read-out and setting: next, `O=C(Nc1cc(C2CCN(S(=O)(=O)C3CC3)CC2)nn1-c1ccc(OC(F)(F)F)cc1)c1cnn2cccnc12` [Example 27, N-(3-(1-(cyclopropylsulfonyl)piperidin-4-yl)-1-(4-(trifluoromethoxy)phenyl)-1H-pyrazol-5-yl)pyrazolo[1,5-a]pyrimidine-3-carboxamide]: more than 1 µM.
The same measure, in the same setting: next, `Cc1ccc(-n2nc(C3CN(Cc4ccncc4)C3)cc2NC(=O)c2cnn3cccnc23)cc1` [Example 309, N-{1-(4-methylphenyl)-3-[1-(pyridin-4-ylmethyl)azetidin-3-yl]-1H-pyrazol-5-yl}pyrazolo[1,5-a]pyrimidine-3-carboxamide]: less than 1 µM; `Cc1ccc(-n2nc(C3CC3)cc2NC(=O)c2cnn3cccnc23)cc1` [Example 130, N-(3-cyclopropyl-1-(p-tolyl)-1H-pyrazol-5-yl)pyrazolo[1,5-a]pyrimidine-3-carboxamide]: less than 1 µM.
Regarding `CS(=O)(=O)N1CCC(c2cc(NC(=O)c3cnn4cccnc34)n(-c3ccc(Cl)cc3F)n2)CC1` [Example 29, N-(1-(4-chloro-2-fluorophenyl)-3-(1-(methylsulfonyl)piperidin-4-yl)-1H-pyrazol-5-yl)pyrazolo[1,5-a]pyrimidine-3-carboxamide], the IC50 is less than 1 µM.
Still for that read-out and setting: as for `Cc1ccc(-n2nc(-c3conc3C)cc2NC(=O)c2cnn3cccnc23)cc1` [Example 334, N-[3-(3-methylisoxazol-4-yl)-1-(4-methylphenyl)-1H-pyrazol-5-yl]pyrazolo[1,5-a]pyrimidine-3-carboxamide], the figure is less than 1 µM; as for `COc1ccc(-n2nc(C3CCN(S(=O)(=O)C(F)(F)F)CC3)cc2NC(=O)c2cnn3cccnc23)cc1` [Example 30, N-(1-(4-methoxyphenyl)-3-(1-((trifluoromethyl)sulfonyl)piperidin-4-yl)-1H-pyrazol-5-yl)pyrazolo[1,5-a]pyrimidine-3-carboxamide], more than 1 µM.
